The target in the first experiment is T1, human TREK-1 (Homo sapiens, UniProt O95069).
T1 construct: expressed in transfected cells
T1 sequence (O95069 1-426): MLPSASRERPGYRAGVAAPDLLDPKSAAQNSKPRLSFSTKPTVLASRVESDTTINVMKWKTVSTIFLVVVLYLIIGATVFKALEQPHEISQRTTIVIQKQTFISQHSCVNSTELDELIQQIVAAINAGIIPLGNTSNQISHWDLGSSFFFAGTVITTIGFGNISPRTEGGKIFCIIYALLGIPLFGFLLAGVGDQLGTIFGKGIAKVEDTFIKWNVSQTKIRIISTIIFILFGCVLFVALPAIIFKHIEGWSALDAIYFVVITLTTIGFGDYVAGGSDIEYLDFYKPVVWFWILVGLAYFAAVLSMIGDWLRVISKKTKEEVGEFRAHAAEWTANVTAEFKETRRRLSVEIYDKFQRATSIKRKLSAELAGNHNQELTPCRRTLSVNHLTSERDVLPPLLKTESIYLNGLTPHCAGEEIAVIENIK
The experiment can be described thus: TREK-1 Thallium (Tl+) flux assay, Method 1. Format: cell-based. As to conditions: TREK-1 Thallium (Tl+) flux assay, Method 1. The essentials:
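CHO-K1 cells stably expressing human TREK-1, loaded with Thallos dye, received compound or 0.3% DMSO vehicle for 10 min before thallium stimulus buffer. ΔRatio is fluorescence at 25 s after thallium addition over mean pre-addition fluorescence; % inhibition calculated from it.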
With `CCC(=O)N[C@H]1CC[C@@H](n2ncc(Cl)c2C(=O)Nc2ccc(OCc3ccccc3)cc2C)CC1` [Compound 392, N-(4-(benzyloxy)-2-methylphenyl)-4-chloro-1-(cis-4-propionamidocyclohexyl)-1H-pyrazole-5-carboxamide], half-maximal inhibition (IC50) required 1.26 µM.

The experiment is the same for the next values; noted with them: TREK-1 Thallium (Tl+) flux assay; no *^12 (Method 2) mark on these rows.
With `Cc1cc(-c2cnn(-c3ccc(F)cc3)c2)cnc1NC(=O)c1c(Cl)cnn1C[C@@H]1CCOC1` [Compound 379, (S)-4-chloro-N-(5-(1-(4-fluorophenyl)-1H-pyrazol-4-yl)-3-methylpyridin-2-yl)-1-((tetrahydrofuran-3-yl)methyl)-1H-pyrazole-5-carboxamide], the IC50 came out at 0.32 µM.
As to `Cc1cc(C#Cc2ccc(F)cc2)cnc1NC(=O)c1c(Cl)cnn1[C@H]1C[C@H](NC(=O)C2CC2)C1` [Compound 198, 4-chloro-1-(trans-3-(cyclopropanecarboxamido)cyclobutyl)-N-(5-((4-fluorophenyl)ethynyl)-3-methylpyridin-2-yl)-1H-pyrazole-5-carboxamide], inhibition was half-maximal at 0.3 µM (IC50).
`O=C(Nc1c(F)cc(C#Cc2ccccc2)cc1F)c1c(Cl)cnn1[C@H]1CCOC1` [Compound 199, (S)-4-chloro-N-(2,6-difluoro-4-(phenylethnyl)phenyl)-1-(tetrahydrofuran-3-yl)-1H-pyrazole-5-carboxamide]: the IC50 is 0.31 µM.
Regarding `Cc1cc(C#Cc2ccccc2)cnc1NC(=O)c1c(Cl)cnn1C[C@H]1CCCN(C(=O)C(C)C)C1` [Compound 263], the IC50 turned out to be 0.43 µM.
`Cc1cc(C#Cc2ccccc2)cnc1NC(=O)c1c(Cl)cnn1CC1(C)CCN(C(=O)C2CC2)CC1` [Compound 295] gave an IC50 of 0.53 µM.
As for `Cc1cc(-c2cnn(-c3ccc(F)cc3)c2)cnc1NC(=O)c1c(Cl)cnn1CC1(C#N)CC1` [Compound 389, 4-chloro-1-((1-cyanocyclopropyl)methyl)-N-(5-(1-(4-fluorophenyl)-1H-pyrazol-4-yl)-3-methylpyridin-2-yl)-1H-pyrazole-5-carboxamide], the IC50 was 1.21 µM.
Regarding `CC(=O)N1CCC(n2ncc(Cl)c2C(=O)Nc2ccc(OCc3ccccc3)cc2C)CC1` [Compound 388, 1-(1-acetylpiperidin-4-yl)-N-(4-(benzyloxy)-2-methylphenyl)-4-chloro-1H-pyrazole-5-carboxamide], the IC50 came out at 1.05 µM.
As to `CC(C)(C)OC(=O)N1CC[C@@H](Cn2ncc(Cl)c2C(=O)Nc2ncc(C#Cc3ccccc3)cc2F)[C@H](F)C1` [Compound 240, tert-butyl (3S,4S)-4-((4-chloro-5-((3-fluoro-5-(phenylethynyl)pyridin-2-yl)carbamoyl)-1H-pyrazol-1-yl)methyl)-3-fluoropiperidine-1-carboxylate], half-maximal inhibition (IC50) was put at 0.37 µM.
As for `Cc1cc(C#Cc2ccc(F)cc2)cnc1NC(=O)c1c(Cl)cnn1CC1CCCN(C(=O)C2CC2C)C1` (centres unmarked) [Compound 264, 4-chloro-N-(5-((4-fluorophenyl)ethynyl)-3-methylpyridin-2-yl)-1-((1-(2-methylcyclopropane-1-carbonyl)piperidin-3-yl)methyl)-1H-pyrazole-5-carboxamide], the IC50 came out at 0.43 µM.
`Cc1cc(C#Cc2ccccc2)cnc1NC(=O)c1c(Cl)cnn1-c1ccc2c(c1)OCO2` [Compound 283, 1-(benzol[d][1,3]dioxol-5-yl)-4-chloro-N-(3-methyl-5-(phenylethynyl)pyridin-2-yl)-1H-pyrazole-5-carboxamide] yielded a half-inhibitory concentration (IC50) of 0.49 µM.
On the same count and under the same terms, the figure for `CCN1CC(n2ncc(Cl)c2C(=O)Nc2ncc(C#Cc3ccccc3)cc2F)C1` [Compound 373, 4-chloro-1-(1-ethylazetidin-3-yl)-N-(3-fluoro-5-(phenylethynyl)pyridin-2-yl)-1H-pyrazole-5-carboxamide hydrate] is 1.1 µM.
`Cc1cc(C#Cc2cccs2)cnc1NC(=O)c1c(Cl)cnn1[C@H]1C[C@@H]2CN(C(=O)C(C)(C)C)C[C@@H]2C1` [Compound 354, 4-chloro-1-[(3aR,5s,6aS)-2-(2,2-dimethylpropanoyl)octahydrocyclopenta [c]pyrrol-5-yl]-N-{3-methyl-5-[(thiophen-2-yl)ethynyl]pyridin-2-yl}-1H-pyrazole-5-carboxamide] returned an IC50 of 0.85 µM.

The experiment is the same for the next values; noted with them: TREK-1 Thallium (Tl+) flux assay; values without footnote *12 are Method 1.
With `N#CCCCn1ncc(Cl)c1C(=O)Nc1ncc(C#Cc2ccccc2)cc1F` [Compound 59, 4-chloro-1-(3-cyanopropyl)-N-(3-fluoro-5-(phenylethynyl)pyridin-2-yl)-1H-pyrazole-5-carboxamide], half-maximal inhibition (IC50) was put at 0.15 µM.
Molecule `Cc1cc(C#Cc2ccccc2)cc(F)c1NC(=O)c1c(Cl)cnn1C1CC(C#N)C1` (centres unmarked) [Compound 194, 4-chloro-1-(3-cyanocyclobutyl)-N-(2-fluoro-6-methyl-4-(phenylethynyl)phenyl)-1H-pyrazole-5-carboxamide] registered an IC50 of 0.3 µM.
`N#CC1(Cn2ncc(Cl)c2C(=O)Nc2ncc(C#Cc3ccccc3)cc2F)CC1` [Compound 141, 4-chloro-1-((1-cyanocyclopropyl)methyl)-N-(3-fluoro-5-(phenylethynyl)pyridin-2-yl)-1H-pyrazole-5-carboxamide]: the half-maximal inhibitory concentration (IC50) was found to be 0.23 µM.
On to `O=C(Nc1c(F)cc(C#Cc2ccccc2)cc1F)c1c(Cl)cnn1C[C@H]1CCOC1` [Compound 162, (R)-4-chloro-N-(2,6-difluoro-4-(phenylethynyl)phenyl)-1-((tetrahydrofuran-3-yl)methyl)-1H-pyrazole-5-carboxamide], for which the IC50 was 0.26 µM.
For the molecule `Cc1cc(C#Cc2cccc(F)c2)cnc1NC(=O)c1c(Cl)cnn1CC1CCN(C(=O)C2CC2)CC1` [Compound 174, 4-chloro-1-((1-(cyclopropanecarbonyl)piperidin-4-yl)methyl)-N-(5-((3-fluorophenyl)ethynyl)-3-methylpyridin-2-yl)-1H-pyrazole-5-carboxamide], the 50% inhibitory concentration (IC50) is 0.27 µM.
`CC(=O)N1CCC(n2ncc(Br)c2C(=O)Nc2ncc(C#Cc3ccccc3)cc2C)CC1` [Compound 17, 1-(1-acetylpiperidin-4-yl)-4-bromo-N-(3-methyl-5-(phenylethynyl)pyridin-2-yl)-1H-pyrazole-5-carboxamide] showed a 50% inhibitory concentration (IC50) of 0.04 µM.
For `CC(=O)N1CCC(C(C)n2ncc(Cl)c2C(=O)Nc2ncc(C#Cc3ccccc3)cc2C)CC1` (centres unmarked) [Compound 32, 1-(1-(1-acetylpiperidin-4-yl)ethyl)-4-chloro-N-(3-methyl-5-(phenylethynyl)pyridin-2-yl)-1H-pyrazole-5-carboxamide], the half-maximal inhibitory concentration (IC50) came out at 0.1 µM.
In the case of `CC(=O)N1CC[C@H](n2ncc(Cl)c2C(=O)Nc2ncc(C#Cc3ccccc3)cc2F)[C@@H](F)C1` [Compound 154, 1-((3S,4S)-1-acetyl-3-fluoropiperidin-4-yl)-4-chloro-N-(3-fluoro-5-(phenylethynyl)pyridin-2-yl)-1H-pyrazole-5-carboxamide], the half-inhibitory concentration (IC50) came out at 0.24 µM.
Take `Cc1cc(C#Cc2ccccc2)cnc1NC(=O)c1c(Cl)cnn1CC1CCN(C(=O)C(C)C)CC1` [Compound 53, 4-chloro-1-((1-isobutyrylpiperidin-4-yl)methyl)-N-(3-methyl-5-(phenylethnyl)pyridin-2-yl)-1H-pyrazole-5-carboxamide]: the 50% inhibitory concentration (IC50) turned out to be 0.14 µM.
The molecule `O=C(Nc1ncc(C#Cc2ccc(F)cc2)cc1F)c1c(Cl)cnn1[C@H]1CC[C@@H](NC(=O)C2COCCO2)CC1` (stereo partly drawn) [Compound 23, 1-(cis-4-(1,4-dioxane-2-carboxamido)cyclohexyl)-4-chloro-N-(3-fluoro-5-((4-fluorophenyl)ethynyl)pyridin-2-yl)-1H-pyrazole-5-carboxamide] gave an IC50 of 0.08 µM.

What is called IC50 is the concentration that gives 50% inhibition. A high value points to a need for much substance.

The values are drawn from patent US20240182445A1 (ONO PHARMACEUTICAL CO., LTD., priority 2019, published 2024).
